Results taken from patent US20260297060A1, “COMPOUNDS FOR THE DEGRADATION OF MUTANT BRAF” (C4 THERAPEUTICS, INC., priority 2023, published 2026).
Like-named read-outs stand apart in the source and are kept apart here.

Assay: Pharmacokinetics in female BALB/c nude mice bearing A375 xenografts, 1 day dosing (PK and PD study): plasma, tumor and brain concentrations, AUC
Assay type: in vivo
Details: for Mean Concentration in Brain ± SEM / Mean Concentration in Plasma ± SEM / Mean Concentration in Tumor ± SEM: BQL: below the lower limit of quantitation; for AUC at 24 h: read-out: Brain AUC at 24 hours, Average
From the text: The concentrations of Dabrafenib, Compound 26 and Compound 141 in the treatment of female BALB/c nude mice bearing A375 xenografts are shown in Table 62-Table 72 and FIG. 52-FIG. 73.

[1] = 1.5 mg/kg p.o. BID × 1 day, post 2nd dose, 48 h
[2] = 2 mg/kg p.o. TID × 1 day, post 3rd dose, 48 h
[3] = 3 mg/kg p.o. BID × 1 day, post 2nd dose, 36 h
[4] = mouse, brain, po, 1.5 mg/kg, 1.5 mg/kg p.o. BID × 1 day, post 2nd dose, read-out: Mean Concentration in Brain ± SEM
[5] = mouse, brain, po, 2 mg/kg, 2 mg/kg p.o. TID × 1 day, post 3rd dose, read-out: Mean Concentration in Brain ± SEM
[6] = mouse, brain, po, 3 mg/kg, 3 mg/kg p.o. BID × 1 day, post 2nd dose, read-out: Mean Concentration in Brain ± SEM
[7] = mouse, brain, po, 6 mg/kg, 6 mg/kg p.o. QD × 1 day, read-out: Mean Concentration in Brain ± SEM
[8] = mouse, brain, po, 10 mg/kg, 10 mg/kg p.o. BID × 1 day, post 2nd dose, read-out: Mean Concentration in Brain ± SEM
[9] = mouse, plasma, po, 1.5 mg/kg, 1.5 mg/kg p.o. BID × 1 day, post 1st dose, read-out: Mean Concentration in Plasma ± SEM
[10] = mouse, plasma, po, 1.5 mg/kg, 1.5 mg/kg p.o. BID × 1 day, post 2nd dose, read-out: Mean Concentration in Plasma ± SEM
[11] = mouse, plasma, po, 2 mg/kg, 2 mg/kg p.o. TID × 1 day, post 1st dose, read-out: Mean Concentration in Plasma ± SEM
[12] = mouse, plasma, po, 2 mg/kg, 2 mg/kg p.o. TID × 1 day, post 2nd dose, read-out: Mean Concentration in Plasma ± SEM
[13] = mouse, plasma, po, 2 mg/kg, 2 mg/kg p.o. TID × 1 day, post 3rd dose, read-out: Mean Concentration in Plasma ± SEM
[14] = mouse, plasma, po, 3 mg/kg, 3 mg/kg p.o. BID × 1 day, post 1st dose, read-out: Mean Concentration in Plasma ± SEM

Q: What does the source list for CCN(C)S(=O)(=O)Nc1ccc(F)c(Oc2ccc3ncn([C@H]4COC5(CCN(C6CC7(C6)CN(c6cc8c(cc6F)c(N6CCC(=O)NC6=O)nn8C)C7)CC5)C4)c(=O)c3c2)c1C#N [Compound 26, (3R)-3-[6-[2-cyano-3-[[ethyl(methyl)sulfamoyl]amino]-6-fluoro-phenoxy]-4-oxo-quinazolin-3-yl]-8-[2-[3-(2,4-dioxohexahydropyrimidin-1-yl)-5-fluoro-1-methyl-indazol-6-yl]-2-azaspiro[3.3]heptan-6-yl]-1-oxa-8-azaspiro[4.5]decane]?
A: Mean Concentration in Brain ± SEM (1.5 mg/kg p.o. BID × 1 day, post 2nd dose, 24 h): BQL^a; Mean Concentration in Brain ± SEM [1]: BQL; Mean Concentration in Plasma ± SEM [1]: BQL; Mean Concentration in Brain ± SEM (2 mg/kg p.o. TID × 1 day, post 3rd dose, 24 h): BQL^a; Mean Concentration in Brain ± SEM [2]: BQL; Mean Concentration in Plasma ± SEM [2]: BQL; Mean Concentration in Tumor ± SEM [2]: BQL; Mean Concentration in Brain ± SEM (3 mg/kg p.o. BID × 1 day, post 2nd dose, 24 h): BQL^a; Mean Concentration in Brain ± SEM [3]: BQL; Mean Concentration in Tumor ± SEM [3]: BQL; Mean Concentration in Brain ± SEM (3 mg/kg p.o. BID × 1 day, post 2nd dose, 48 h): BQL; Mean Concentration in Brain ± SEM (6 mg/kg p.o. QD × 1 day, 24 h): BQL^a; Mean Concentration in Brain ± SEM (6 mg/kg p.o. QD × 1 day, 48 h): BQL; Mean Concentration in Brain ± SEM (10 mg/kg p.o. BID × 1 day, post 2nd dose, 24 h): BQL^a; Mean Concentration in Brain ± SEM (10 mg/kg p.o. BID × 1 day, post 2nd dose, 48 h): BQL; concentration at 1 h [4]: 25 ± 3.74 ng/g; concentration at 4 h [4]: 21.8 ± 3.64 ng/g; concentration at 10 h [4]: 9.78 ± 0.841 ng/g; concentration at 1 h [5]: 66.5 ± 11.7 ng/g; concentration at 4 h [5]: 26.9 ± 2.99 ng/g; concentration at 10 h [5]: 23 ± 7.44 ng/g; concentration at 0.25 h [6]: 29.7 ng/g; concentration at 0.5 h [6]: 41 ± 4.05 ng/g; concentration at 1 h [6]: 89.1 ± 25 ng/g; concentration at 2 h [6]: 99.5 ± 11.9 ng/g; concentration at 4 h [6]: 35.8 ± 6.52 ng/g; concentration at 10 h [6]: 14.5 ± 0.737 ng/g; concentration at 1 h [7]: 167 ± 27.6 ng/g; concentration at 4 h [7]: 79.2 ± 21.8 ng/g; concentration at 10 h [7]: 30.8 ± 8.11 ng/g; concentration at 1 h [8]: 313 ± 41.7 ng/g; concentration at 4 h [8]: 185 ± 18.2 ng/g; concentration at 10 h [8]: 80.4 ± 8.59 ng/g; AUC at 24 h (mouse, brain, po, 1.5 mg/kg p.o. BID × 1 day): 233 ng·h/mL; AUC at 24 h (mouse, brain, po, 2 mg/kg p.o. TID × 1 day): 451 ng·h/mL; AUC at 24 h (mouse, brain, po, 3 mg/kg p.o. BID × 1 day): 522 ng·h/mL; AUC at 24 h (mouse, brain, po, 6 mg/kg p.o. QD × 1 day): 915 ng·h/mL; AUC at 24 h (mouse, brain, po, 10 mg/kg p.o. BID × 1 day): 2100 ng·h/mL; concentration at 0.25 h [9]: 1180 ± 103 ng/mL; concentration at 0.5 h [9]: 2620 ± 182 ng/mL; concentration at 1 h [9]: 3790 ± 553 ng/mL; concentration at 2 h [9]: 3090 ± 346 ng/mL; concentration at 4 h [9]: 1110 ± 339 ng/mL; concentration at 8 h [9]: 318 ± 78.2 ng/mL; concentration at 12 h (mouse, plasma, po, 1.5 mg/kg, 1.5 mg/kg p.o. BID × 1 day, post 1st dose, 12 h, read-out: Mean Concentration in Plasma ± SEM): 121 ± 6.74 ng/mL; concentration at 0.25 h [10]: 629 ± 24.4 ng/mL; concentration at 0.5 h [10]: 1580 ± 108 ng/mL; concentration at 1 h [10]: 1820 ± 86.6 ng/mL; concentration at 2 h [10]: 2930 ± 312 ng/mL; concentration at 4 h [10]: 1740 ± 355 ng/mL; concentration at 10 h [10]: 541 ± 95.8 ng/mL; concentration at 24 h (mouse, plasma, po, 1.5 mg/kg, 1.5 mg/kg p.o. BID × 1 day, post 2nd dose, 24 h, read-out: Mean Concentration in Plasma ± SEM): 4.74 ± 1.31 ng/mL; concentration at 36 h (mouse, plasma, po, 1.5 mg/kg, 1.5 mg/kg p.o. BID × 1 day, post 2nd dose, 36 h, read-out: Mean Concentration in Plasma ± SEM): 0.889 ng/mL; concentration at 0.25 h [11]: 1600 ± 272 ng/mL; concentration at 0.5 h [11]: 2880 ± 289 ng/mL; concentration at 1 h [11]: 3720 ± 77.7 ng/mL; concentration at 2 h [11]: 2930 ± 635 ng/mL; concentration at 4 h [11]: 1420 ± 56.7 ng/mL; concentration at 8 h [11]: 283 ± 80.3 ng/mL; concentration at 0.25 h [12]: 1390 ± 84.1 ng/mL; concentration at 2 h [12]: 2720 ± 466 ng/mL; concentration at 8 h [12]: 580 ± 166 ng/mL; concentration at 0.25 h [13]: 1090 ± 75.2 ng/mL; concentration at 0.5 h [13]: 2630 ± 81.7 ng/mL; concentration at 1 h [13]: 3780 ± 584 ng/mL; concentration at 2 h [13]: 3680 ± 376 ng/mL; concentration at 4 h [13]: 1770 ± 127 ng/mL; concentration at 10 h [13]: 1250 ± 411 ng/mL; concentration at 24 h (mouse, plasma, po, 2 mg/kg, 2 mg/kg p.o. TID × 1 day, post 3rd dose, 24 h, read-out: Mean Concentration in Plasma ± SEM): 9.4 ± 3.31 ng/mL; concentration at 36 h (mouse, plasma, po, 2 mg/kg, 2 mg/kg p.o. TID × 1 day, post 3rd dose, 36 h, read-out: Mean Concentration in Plasma ± SEM): 1.45 ng/mL; concentration at 0.25 h [14]: 3010 ± 401 ng/mL; concentration at 0.5 h [14]: 8140 ± 2030 ng/mL; concentration at 1 h [14]: 7840 ± 1330 ng/mL; concentration at 2 h [14]: 6910 ± 1450 ng/mL
